One may read the mass density as mass per unit of volume.

± gives the expanded uncertainty stated by the source.

For this data set the following is noted: 298.15 K; 101.33 kPa; Liquid.
With `CCCCCCCCCCCC` [dodecane], the mass density is 747 ± 4 kg/m3. For `CCCCCCCCCCCCCCCC` [hexadecane], the mass density came to 771.5 ± 1.4 kg/m3.

For `CCCCCCn1cc[n+](C)c1.F[P-](F)(F)(F)(F)F` [1-hexyl-3-methylimidazolium hexafluorophosphate], the mass density is reported as 1293.5 ± 7 kg/m3. For `CCCCCCn1cc[n+](C)c1.F[B-](F)(F)F` [1-hexyl-3-methylimidazolium tetrafluoroborate] the value was 1148.1 ± 5 kg/m3; for `c1ccccc1` [benzene], 873.2 ± 0.9 kg/m3. As to `CCCCCCC` [heptane], the mass density was 690.6 ± 1.6 kg/m3.

(Values after the NIST ThermoML archive (doi:10.1016/j.jct.2004.05.001).)
